Source: patent US10670605B2, “Cysteine reactive probes and uses thereof” (The Scripps Research Institute, priority 2015, dated 2020)

Columns and labels:
[1] = biological target: EZH2 C503 (Q15910) (Homo sapiens, UniProt Q15910); experiment: Competitive isoTOP-ABPP, cell lysates; assay type: binding
[2] = biological target: LRBA C2675 (P50851) (Homo sapiens, UniProt P50851); experiment: Competitive isoTOP-ABPP, cell lysates; assay type: binding
[3] = biological target: T1, MGMT C145 (P16455) (Homo sapiens, UniProt P16455); experiment: Competitive isoTOP-ABPP, cell lysates; assay type: binding
T1 sequence (P16455 1-207): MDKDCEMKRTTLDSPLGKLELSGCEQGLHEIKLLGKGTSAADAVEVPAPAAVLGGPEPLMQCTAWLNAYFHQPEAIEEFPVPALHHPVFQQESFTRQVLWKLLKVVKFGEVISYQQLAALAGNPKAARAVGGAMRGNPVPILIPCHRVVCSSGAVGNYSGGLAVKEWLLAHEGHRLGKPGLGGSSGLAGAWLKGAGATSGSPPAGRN

[4] = biological target: PFKFB4 C159 (Q16877) (Homo sapiens, UniProt Q16877); experiment: Competitive isoTOP-ABPP, cell lysates; assay type: binding
Chain of PFKFB4 C159 (Q16877) (Q16877 whole entry, the tested form may be a part): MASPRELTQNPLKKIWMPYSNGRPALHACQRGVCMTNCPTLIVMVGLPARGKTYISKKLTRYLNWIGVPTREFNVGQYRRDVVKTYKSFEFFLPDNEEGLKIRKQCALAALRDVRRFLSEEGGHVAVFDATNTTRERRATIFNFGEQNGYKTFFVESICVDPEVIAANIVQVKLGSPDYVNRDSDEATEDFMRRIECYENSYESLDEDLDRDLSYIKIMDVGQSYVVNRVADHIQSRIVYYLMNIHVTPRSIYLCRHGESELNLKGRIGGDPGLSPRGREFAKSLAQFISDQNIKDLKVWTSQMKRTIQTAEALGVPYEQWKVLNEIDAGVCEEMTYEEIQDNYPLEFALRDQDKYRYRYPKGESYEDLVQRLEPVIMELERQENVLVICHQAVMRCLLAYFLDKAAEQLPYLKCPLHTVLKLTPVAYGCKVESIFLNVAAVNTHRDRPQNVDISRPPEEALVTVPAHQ

[5] = biological target: RRAGC C358 (Q9HB90) (Homo sapiens, UniProt Q9HB90); experiment: Competitive isoTOP-ABPP, cell lysates; assay type: binding; conditions: for R value (DMSO/fragment): in vitro, MDA-MB-231; for isoTOP-ABPP reactivity ratio, Q9HB90_C358: 500 μm
Chain of RRAGC C358 (Q9HB90) (Q9HB90 2-399 limits assumed): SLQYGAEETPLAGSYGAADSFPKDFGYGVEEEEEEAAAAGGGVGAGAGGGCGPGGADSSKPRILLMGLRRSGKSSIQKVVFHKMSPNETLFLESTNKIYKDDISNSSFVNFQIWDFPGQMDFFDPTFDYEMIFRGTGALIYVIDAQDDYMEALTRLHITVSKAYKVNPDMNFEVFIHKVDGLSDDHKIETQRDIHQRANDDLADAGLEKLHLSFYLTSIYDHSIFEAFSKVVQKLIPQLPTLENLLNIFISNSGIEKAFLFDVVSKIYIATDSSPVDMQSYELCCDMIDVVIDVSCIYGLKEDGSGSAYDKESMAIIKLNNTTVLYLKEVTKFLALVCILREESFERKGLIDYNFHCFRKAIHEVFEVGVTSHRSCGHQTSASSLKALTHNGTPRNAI
Chain of RRAGC C358 (Q9HB90) (Q7L523 whole entry partner, the tested form may be a part): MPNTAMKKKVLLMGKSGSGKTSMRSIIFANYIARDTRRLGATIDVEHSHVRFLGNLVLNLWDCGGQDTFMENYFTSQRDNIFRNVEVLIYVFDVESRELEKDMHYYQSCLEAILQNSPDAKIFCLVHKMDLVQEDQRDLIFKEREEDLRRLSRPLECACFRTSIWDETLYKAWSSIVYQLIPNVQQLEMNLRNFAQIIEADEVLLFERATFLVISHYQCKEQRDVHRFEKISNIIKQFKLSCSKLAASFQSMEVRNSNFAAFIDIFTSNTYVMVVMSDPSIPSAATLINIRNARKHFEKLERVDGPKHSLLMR

[6] = biological target: cysteines in MDA-MB-231 and Ramos cells (Homo sapiens, UniProt Q14997); experiment: Competitive isoTOP-ABPP in situ (fragment-treated cells); assay type: cell-based; conditions: for isoTOP-ABPP ratio Q14997_C1840: 200 μM, insitu
[7] = biological target: T2, cysteines in MDA-MB-231 and Ramos cells (Homo sapiens, UniProt Q15233); experiment: as above; assay type: cell-based
T2 sequence (Q15233 1-471): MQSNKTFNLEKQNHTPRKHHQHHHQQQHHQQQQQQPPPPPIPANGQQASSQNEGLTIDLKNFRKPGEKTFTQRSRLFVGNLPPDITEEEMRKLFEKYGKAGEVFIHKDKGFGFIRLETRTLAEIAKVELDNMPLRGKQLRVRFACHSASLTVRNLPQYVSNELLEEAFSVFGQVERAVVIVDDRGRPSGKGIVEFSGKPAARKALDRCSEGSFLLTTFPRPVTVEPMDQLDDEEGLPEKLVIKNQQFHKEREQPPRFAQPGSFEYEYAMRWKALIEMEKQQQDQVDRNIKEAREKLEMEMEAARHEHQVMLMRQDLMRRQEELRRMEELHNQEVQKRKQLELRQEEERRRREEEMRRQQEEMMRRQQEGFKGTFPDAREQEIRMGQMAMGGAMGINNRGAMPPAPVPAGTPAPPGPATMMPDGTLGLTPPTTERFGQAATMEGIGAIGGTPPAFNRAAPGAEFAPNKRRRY

[8] = biological target: cysteines in MDA-MB-231 and Ramos cells (Homo sapiens, UniProt Q16831); experiment: as above; assay type: cell-based
Chain of cysteines in MDA-MB-231 and Ramos cells (Homo sapiens, UniProt Q16831) (Q16831 whole entry): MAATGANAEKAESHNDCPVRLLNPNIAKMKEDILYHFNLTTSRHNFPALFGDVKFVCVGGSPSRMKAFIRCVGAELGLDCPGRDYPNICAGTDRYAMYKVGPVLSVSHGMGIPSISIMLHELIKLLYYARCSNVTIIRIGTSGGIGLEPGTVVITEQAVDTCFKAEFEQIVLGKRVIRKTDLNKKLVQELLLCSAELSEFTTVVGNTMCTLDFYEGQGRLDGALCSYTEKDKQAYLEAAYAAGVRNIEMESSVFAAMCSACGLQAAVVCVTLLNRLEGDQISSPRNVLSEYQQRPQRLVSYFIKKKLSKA

[9] = biological target: T3, cysteines in MDA-MB-231 and Ramos cells (Homo sapiens, UniProt Q86SX6); experiment: as above; assay type: cell-based
T3 sequence (Q86SX6 32-157): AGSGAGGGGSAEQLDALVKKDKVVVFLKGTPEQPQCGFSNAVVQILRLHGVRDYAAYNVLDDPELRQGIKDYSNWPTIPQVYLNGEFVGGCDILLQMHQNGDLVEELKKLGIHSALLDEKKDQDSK

Chain of LRBA C2675 (P50851) (P50851 whole entry): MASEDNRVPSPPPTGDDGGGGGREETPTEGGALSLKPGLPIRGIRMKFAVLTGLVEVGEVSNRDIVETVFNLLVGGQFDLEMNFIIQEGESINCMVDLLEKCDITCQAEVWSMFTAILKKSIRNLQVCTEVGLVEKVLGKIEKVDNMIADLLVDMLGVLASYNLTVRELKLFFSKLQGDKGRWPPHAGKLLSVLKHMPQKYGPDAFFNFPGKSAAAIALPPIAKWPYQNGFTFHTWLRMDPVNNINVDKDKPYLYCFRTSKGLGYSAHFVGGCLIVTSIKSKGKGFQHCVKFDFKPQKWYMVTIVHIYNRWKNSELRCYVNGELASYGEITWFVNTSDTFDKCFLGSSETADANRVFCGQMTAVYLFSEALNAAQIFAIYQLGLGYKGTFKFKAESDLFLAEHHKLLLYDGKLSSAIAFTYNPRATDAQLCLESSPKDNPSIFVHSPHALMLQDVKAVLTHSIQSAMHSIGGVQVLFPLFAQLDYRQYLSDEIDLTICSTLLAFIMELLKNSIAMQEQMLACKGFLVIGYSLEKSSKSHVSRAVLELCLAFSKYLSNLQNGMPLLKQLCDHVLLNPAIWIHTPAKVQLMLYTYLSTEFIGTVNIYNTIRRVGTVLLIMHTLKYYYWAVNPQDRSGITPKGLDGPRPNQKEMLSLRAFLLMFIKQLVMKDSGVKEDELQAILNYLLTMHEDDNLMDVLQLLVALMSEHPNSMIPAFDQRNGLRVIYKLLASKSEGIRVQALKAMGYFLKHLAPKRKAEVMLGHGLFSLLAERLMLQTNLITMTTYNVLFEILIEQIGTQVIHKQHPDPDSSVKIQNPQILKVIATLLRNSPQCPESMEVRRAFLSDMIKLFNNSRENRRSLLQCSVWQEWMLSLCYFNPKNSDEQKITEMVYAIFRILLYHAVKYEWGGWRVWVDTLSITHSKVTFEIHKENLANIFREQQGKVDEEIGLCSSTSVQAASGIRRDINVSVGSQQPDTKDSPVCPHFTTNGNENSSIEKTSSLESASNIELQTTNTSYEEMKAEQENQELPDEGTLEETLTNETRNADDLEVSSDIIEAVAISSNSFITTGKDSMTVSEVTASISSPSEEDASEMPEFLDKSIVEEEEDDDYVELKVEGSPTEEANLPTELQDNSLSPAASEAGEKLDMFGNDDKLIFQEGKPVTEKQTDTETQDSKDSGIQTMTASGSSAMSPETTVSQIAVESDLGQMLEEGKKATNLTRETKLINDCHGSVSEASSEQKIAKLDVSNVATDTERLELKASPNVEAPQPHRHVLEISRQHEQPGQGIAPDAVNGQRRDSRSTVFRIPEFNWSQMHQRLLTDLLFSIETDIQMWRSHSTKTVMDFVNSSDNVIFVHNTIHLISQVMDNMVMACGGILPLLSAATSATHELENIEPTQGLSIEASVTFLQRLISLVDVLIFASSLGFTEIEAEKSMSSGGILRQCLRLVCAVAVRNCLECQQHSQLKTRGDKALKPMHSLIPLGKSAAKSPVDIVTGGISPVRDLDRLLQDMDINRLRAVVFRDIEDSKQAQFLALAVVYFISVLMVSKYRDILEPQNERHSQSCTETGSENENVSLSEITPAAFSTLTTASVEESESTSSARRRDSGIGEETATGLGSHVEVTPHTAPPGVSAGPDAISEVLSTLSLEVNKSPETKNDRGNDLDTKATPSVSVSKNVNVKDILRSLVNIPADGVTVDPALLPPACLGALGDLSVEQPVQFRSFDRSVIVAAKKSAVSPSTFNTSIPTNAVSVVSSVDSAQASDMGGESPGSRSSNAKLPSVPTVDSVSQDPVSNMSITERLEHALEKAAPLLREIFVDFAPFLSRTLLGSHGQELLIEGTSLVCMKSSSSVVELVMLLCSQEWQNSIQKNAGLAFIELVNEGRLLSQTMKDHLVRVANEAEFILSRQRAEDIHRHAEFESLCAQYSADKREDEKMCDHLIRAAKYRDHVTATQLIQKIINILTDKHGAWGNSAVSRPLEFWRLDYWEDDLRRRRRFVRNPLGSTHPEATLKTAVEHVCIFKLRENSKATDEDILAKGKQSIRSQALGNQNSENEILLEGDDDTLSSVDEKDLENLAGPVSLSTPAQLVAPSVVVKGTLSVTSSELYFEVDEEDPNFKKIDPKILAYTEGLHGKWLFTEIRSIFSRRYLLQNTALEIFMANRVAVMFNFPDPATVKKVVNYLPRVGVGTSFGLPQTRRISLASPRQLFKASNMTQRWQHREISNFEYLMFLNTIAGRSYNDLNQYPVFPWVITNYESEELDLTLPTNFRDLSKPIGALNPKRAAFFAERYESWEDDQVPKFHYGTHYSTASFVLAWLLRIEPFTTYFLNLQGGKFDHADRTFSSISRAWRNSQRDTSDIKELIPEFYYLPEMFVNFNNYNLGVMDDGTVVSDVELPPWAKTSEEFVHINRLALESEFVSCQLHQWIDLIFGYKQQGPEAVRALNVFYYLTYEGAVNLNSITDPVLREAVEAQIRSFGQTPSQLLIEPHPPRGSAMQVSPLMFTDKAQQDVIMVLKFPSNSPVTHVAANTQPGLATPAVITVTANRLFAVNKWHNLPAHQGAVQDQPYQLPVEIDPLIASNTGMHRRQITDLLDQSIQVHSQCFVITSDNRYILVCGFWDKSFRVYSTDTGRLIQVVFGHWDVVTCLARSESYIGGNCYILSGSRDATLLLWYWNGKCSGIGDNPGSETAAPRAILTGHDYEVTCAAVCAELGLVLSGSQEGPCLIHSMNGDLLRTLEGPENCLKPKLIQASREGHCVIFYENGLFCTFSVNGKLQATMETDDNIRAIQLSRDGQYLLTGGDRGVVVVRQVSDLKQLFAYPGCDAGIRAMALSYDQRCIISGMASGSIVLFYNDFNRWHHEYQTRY

O=C(CCl)Nc1cc(C(F)(F)F)cc(C(F)(F)F)c1 [compound 3]
R value (DMSO/fragment) ([1]; 500 μM, invitro, ramos): 2.0 | R value (DMSO/fragment) ([2]; 500 μM, invitro, ramos): 5.1 | R value (DMSO/fragment) ([3]; 500 μM, invitro, ramos): 20.0 | R value (DMSO/fragment) ([4]; 500 μM, invitro, ramos): 12.9 | R value (DMSO/fragment) ([5]; 500 μM): 1.2

COc1ccc(C2CC(c3cccs3)=NN2C(=O)CCl)cc1 (stereo not drawn) [compound 4]
isoTOP-ABPP reactivity Q14997_C1840 PSME4 ([6]; 100 μM in situ 231): 20.0 | isoTOP-ABPP reactivity Q15233_C145 NONO ([7]; 100 μM in situ 231): 1.6 | isoTOP-ABPP reactivity Q16831_C162 UPP1 ([8]; 100 μM in situ 231): 1.0 | isoTOP-ABPP reactivity Q865X6_C67 GLRX5 ([9]; 100 μM in situ 231): 1.4 | R value (DMSO/fragment) ([1]; 250 μM, in vitro, Ramos): 1.5 | R value (DMSO/fragment) ([2]; 250 μM, in vitro, MDA-MB-231): 1.1 | R value (DMSO/fragment) ([3]; 250 μM, in vitro, Ramos): 20.0 | R value (DMSO/fragment) ([4]; 250 μM, in vitro, MDA-MB-231): 1.4 | R value (DMSO/fragment) ([5]; 250 μM): 1.5

O=C(CCl)N1CCN(S(=O)(=O)c2ccccc2F)CC1 [compound 10]
isoTOP-ABPP ratio Q14997_C1840 [6]; 231: 20.0 | isoTOP-ABPP ratio Q15233_C145 ([7]; 200 μM, insitu, ramos): 2.2 | isoTOP-ABPP ratio Q16831_C162 ([8]; 200 μM, insitu, 231): 7.3 | isoTOP-ABPP ratio Q86SX6_C67 ([9]; 200 μM, insitu, 231): 1.3 | isoTOP-ABPP ratio Q86SX6_C67 ([9]; 200 μM, insitu, ramos): 1.1 | isoTOP-ABPP ratio, P50851_C2675 ([2]; 500 μM, invitro, ramos): 1.3 | isoTOP-ABPP ratio, Q16877_C159 ([4]; 500 μM, invitro, 231): 1.2

Cn1cc(S(=O)(=O)N2CCOCC2)cc1C(=O)NC(=O)CCl [compound 11]
isoTOP-ABPP ratio Q15233_C145 ([7]; 100 μM in situ 231): 1.2 | isoTOP-ABPP ratio Q16831_C162 ([8]; 100 μM in situ 231): 0.8 | isoTOP-ABPP ratio Q86SX6_C67 ([9]; 100 μM in situ 231): 1.4 | isoTOP-ABPP ratio, Q15910_C503 ([1]; 500 μM, invitro, ramos): 1.3 | isoTOP-ABPP ratio, P50851_C2675 ([2]; 500 μM, invitro, ramos): 1.3 | isoTOP-ABPP ratio, P16455_C145 ([3]; 500 μM, invitro, ramos): 20.0 | isoTOP-ABPP ratio, Q16877_C159 ([4]; 500 μM, invitro, ramos): 0.6

O=C(CCl)NCCc1c[nH]c2ccccc12 [compound 13]
isoTOP-ABPP ratio Q14997_C1840 [6]; 231: 0.9 | isoTOP-ABPP ratio Q14997_C1840 ([6]; ramos): 1.6 | isoTOP-ABPP ratio Q15233_C145 ([7]; 200 μM, insitu, 231): 1.0 | isoTOP-ABPP ratio Q15233_C145 ([7]; 200 μM, insitu, ramos): 1.1 | isoTOP-ABPP ratio Q16831_C162 ([8]; 200 μM, insitu, 231): 1.0 | isoTOP-ABPP ratio Q86SX6_C67 ([9]; 200 μM, insitu, 231): 10.3 | isoTOP-ABPP ratio Q86SX6_C67 ([9]; 200 μM, insitu, ramos): 12.4 | isoTOP-ABPP ratio, Q15910_C503 ([1]; 500 μM, invitro, ramos): 0.8 | isoTOP-ABPP ratio, P16455_C145 ([3]; 500 μM, invitro, ramos): 20.0 | isoTOP-ABPP ratio, Q16877_C159 ([4]; 500 μM, invitro, 231): 0.9 | isoTOP-ABPP ratio, Q9HB90_C358 ([5]; 500 μM, invitro, 231): 1.5

O=C(CCl)NC12CC3CC(CC(C3)C1)C2 [compound 21]
isoTOP-ABPP ratio Q14997_C1840 [6]; 231: 1.0 | isoTOP-ABPP ratio Q16831_C162 ([8]; 200 μM, insitu, 231): 1.6 | isoTOP-ABPP ratio Q86SX6_C67 ([9]; 200 μM, insitu, 231): 1.4 | isoTOP-ABPP ratio (reactivity profile), P50851_C2675 ([2]; 500 μm in-vitro ramos): 1.5 | isoTOP-ABPP ratio (reactivity profile), P50851_C2675 ([2]; 500 μm in-vitro ramos_231): 0.9 | isoTOP-ABPP ratio (reactivity profile), Q16877_C159 ([4]; 500 μm in-vitro ramos): 1.2 | isoTOP-ABPP ratio (reactivity profile), Q9HB90_C358 ([5]; 500 μm in-vitro ramos_231): 1.2

CC(C)(C)c1cc(NC(=O)CCl)on1 [compound 32]
isoTOP-ABPP reactivity ratio, Q15910_C503 ([1]; 500 μm, in-vitro_ramos): 1.7 | isoTOP-ABPP reactivity ratio, P50851_C2675 ([2]; 500 μm, in-vitro_ramos): 1.1 | isoTOP-ABPP reactivity ratio, P50851_C2675 ([2]; 500 μm, in-vitro_ramos_231): 1.8 | isoTOP-ABPP reactivity ratio, P16455_C145 ([3]; 500 μm, in-vitro_ramos): 20.0 | isoTOP-ABPP reactivity ratio, Q16877_C159 ([4]; 500 μm, in-vitro_ramos): 1.5 | isoTOP-ABPP reactivity ratio, Q9HB90_C358 ([5]; in-vitro_ramos): 1.2 | isoTOP-ABPP reactivity ratio, Q9HB90_C358 ([5]; in-vitro_ramos_231): 1.9

O=C(CCl)Nc1cccc2ncccc12 [compound 51]
isoTOP-ABPP ratio Q14997_C1840 [6]; 231: 20.0 | isoTOP-ABPP ratio Q15233_C145 ([7]; 200 μM, insitu, 231): 1.6 | isoTOP-ABPP ratio Q16831_C162 ([8]; 200 μM, insitu, 231): 1.1 | isoTOP-ABPP ratio Q86SX6_C67 ([9]; 200 μM, insitu, 231): 1.0 | isoTOP-ABPP reactivity profile ratio, P50851_C2675 ([2]; 500 μm, in-vitro_ramos): 0.9 | isoTOP-ABPP reactivity profile ratio, P16455_C145 ([3]; 500 μm, in-vitro_ramos): 20.0 | isoTOP-ABPP reactivity profile ratio, Q16877_C159 ([4]; 500 μm, in-vitro_ramos): 1.1
